The source of these data is article PMC5556108, “In vivo evaluation of radiotracers targeting the melanin-concentrating hormone receptor 1: [^11C]SNAP-7941 and [^18F]FE@SNAP reveal specific uptake in the ventricular system” (Scientific Reports, 2017).

One series concerns the target T1, hMCHR1 (Homo sapiens, UniProt Q99705).
T1 construct: purchased PerkinElmer, Inc., Waltham, USA; host or cells: CHO-K1 cell membranes
As to the kind of experiment: Competitive binding studies: displacement of specific [125I]MCH binding on CHO-K1 cell membranes. As to conditions: for binding cooperativity (from Hill slope factor) / Hill slope factor: displacement of [125I]MCH; for binding cooperativity (from Hill slope factor): CHO-K1 cell membranes expressing hMCHR1.

Series [1] concerns P-glycoprotein (P-gp) and Breast Cancer Resistance Protein (BCRP). Also on record: method as in PMID 23829932. The conditions noted are these: due to binding to P-gp and BCRP; cited from earlier work.
The target in series [2] is T2, MCHR1 (Rattus norvegicus, UniProt P97639).
T2 construct: Small-animal PET/MRI brain scans in healthy rats evinced high radiotracer uptake in the entire ventricular system; from tissue; host or cells: brain (whole brain, ventricular system) of male Sprague-Dawley rats, in vivo / ex vivo
As to the kind of experiment: Small-animal PET/CT/MRI brain imaging, radiotracer uptake (SUV) under baseline and displacement conditions. It counts as in vivo. The procedure:
Twelve-weeks old male Sprague-Dawley rats (HIM:OFA, Himberg, Austria) weighing 389 ± 86 g were kept under controlled environmental conditions (22 ± 1 °C; 40–70% humidity; 12 hours light/dark cycle) with free access to water and standard laboratory animal diet (sniff R/M-H, sniff Spezialdiaeten GmbH, Soest, Germany). Prior to each experiment, the animals were placed into an induction chamber and anesthetized with 2.5% isoflurane. When unconscious, the animals were taken from the chamber and kept under anesthesia with 1.5–2.5% isoflurane provided via a mask during the whole experiment. Physiological parameters and the depth of anesthesia were monitored continuously. Administration of radioligands and MCHR1 antagonists were performed intravenously via the lateral tail vein. All procedures and protocols using animals have been approved by the Institutional Animal Care and Use Committee of the Medical University of Vienna, Austria, as well as by the Austrian Ministry of Science, Research and Economy (BMWFW-66.009/0029-WF/V/3b/2015). Every effort was made to minimize both, the suffering and the number of animals. All experimental procedures and protocols used in this study were performed in accordance with the relevant guidelines and regulations.
(§1) Anaesthetized rats were immobilized in a multimodal animal carrier unit (MACU; medres® – medical research GmbH, Cologne, Germany) and maintained at a body temperature of 37 °C throughout the whole experiment. Animals received either [^11C]SNAP-7941 or [^18F]FE@SNAP, followed by an injection of (±)-SNAP-7941 (15 mg/kg body weight, freshly dissolved in 400 µL; displacement condition; n = 3) or 400 µL of the respective solvent (vehicle condition; n = 3). The MCHR1 antagonists and the vehicle were administered either 15 min ([^11C]SNAP-7941) or 20 min ([^18F]FE@SNAP) after radiotracer injection as a bolus via the lateral tail vein. A stereotactic holder attached to the MACU was used to fix the head of the animals in a reliable and reproducible position within the whole imaging study. Experiments were initiated with a 7 minute cone beam attenuation CT (CBCT) of the brain (360 projections; binning 4 × 4; 80 kV; 500 µA; 200 ms exposure time) using a small-animal CT scanner (Siemens Inveon microSPECT/CT, Siemens Medical Solutions, Knoxville, USA). Subsequently the animals were positioned in the imaging chamber of a Siemens Inveon microPET scanner (Siemens Medical Solution, Knoxville, USA). [^11C]SNAP-7941 (75.85 ± 5.80 MBq; molar activity: 33.12 ± 25.73 GBq/µmol; radiochemical purity: >99%) or [^18F]FE@SNAP (44.12 ± 4.41 MBq; molar activity: 22.18 ± 9.72 GBq/µmol; radiochemical purity: >90%) was injected (200–800 µL) via the lateral tail vein and dynamic PET imaging was performed 45 min for the [^11C]-labeled radiotracer and 60 min for the [^18F]-labeled ligand. Immediately afterwards, T1-weighted high-resolution axial, coronary and sagittal brain MRI scans (2D FLASH; echo time: 3.85 ms; repetition time: 282 ms; flip angle: 30°; field of view: 35 × 35 mm; resolution: 68 × 68 µm; slice thickness: 0.4 mm) were performed using a Bruker BioSpec 94/30 USR small-animal MR system (Bruker BioSpin GmbH, Karlsruhe, Germany). At the end of the imaging study animals were sacrificed under anesthesia through an intravenous injection of pentobarbital sodium (Release® 300 mg/mL, WDT, Garbsen, Germany), brains were removed, weighed and subjected to radioactivity measurements in a Gamma Counter (2480 WIZARD[2], PerkinElmer, Waltham, MA, USA). Values were normalized to weight and dose and expressed as the percentage injected dose per gram of tissue (%ID/g).
CT raw data was reconstructed with a Feldkamp algorithm using a Shepp-Logan filter followed by standard rat beam-hardening correction and noise reduction (matrix size: 1024 × 1024; effective pixel size: 97.56 µm). […]

In series [3] the target is T2, MCHR1. As to the kind of experiment: Ex-vivo brain uptake measured in the Gamma Counter. As to conditions: mean ± SEM. As to the method:
as §1

Details of series [4]: method as in PMID 24106662. The conditions noted are these: cited from earlier work.
The mark [5] stands for this setting: displacement of 0.1 nM [125I]MCH, CHO-K1 cell membranes expressing hMCHR1, Cheng Prusoff, mean ± SEM.
[6] abbreviates: displacement of 0.1 nM [125I]MCH, CHO-K1 cell membranes expressing hMCHR1, mean ± SEM, three independent experiments.
[7] abbreviates: CHO-K1 cell membranes expressing hMCHR1, mean ± SEM.
[8] abbreviates: i.v. tracer, before displacement, group displaced with 15 mg/kg (±)-SNAP-7941, mean ± SEM.
Setting [9] is: i.v. tracer, before displacement, group displaced with vehicle, mean ± SEM.
Where [10] appears, read: male, Sprague-Dawley, in vivo, iv.
[11] abbreviates: male, Sprague-Dawley, in vivo, iv, 15 mg/kg.
Setting [12] is: group with displacement via (±)-SNAP-7941 (15 mg/kg).

Structures can show the parent of a compound that is named as a salt. Where two headings read alike, the source gives them in different places.

Broadly, the Ki is the dissociation constant of the complex between target and ligand, obtained from inhibition or displacement. The low end stands for a stronger hold on the target, the high end for a looser hold on the target. The term IC50 denotes the point on the concentration scale where inhibition reaches its midpoint. Low values mean inhibition by little substance, high ones a need for much substance.

T2 sequence (P97639 whole entry): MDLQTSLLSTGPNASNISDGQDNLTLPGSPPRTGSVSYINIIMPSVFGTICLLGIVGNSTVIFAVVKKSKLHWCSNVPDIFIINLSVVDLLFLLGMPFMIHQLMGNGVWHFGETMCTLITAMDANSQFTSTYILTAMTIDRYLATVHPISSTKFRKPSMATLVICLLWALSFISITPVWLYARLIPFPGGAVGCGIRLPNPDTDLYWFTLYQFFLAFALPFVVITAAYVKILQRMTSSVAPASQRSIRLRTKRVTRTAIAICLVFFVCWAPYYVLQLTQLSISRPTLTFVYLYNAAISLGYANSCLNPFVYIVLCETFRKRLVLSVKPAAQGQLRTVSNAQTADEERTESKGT
T1 sequence (Q99705 whole entry): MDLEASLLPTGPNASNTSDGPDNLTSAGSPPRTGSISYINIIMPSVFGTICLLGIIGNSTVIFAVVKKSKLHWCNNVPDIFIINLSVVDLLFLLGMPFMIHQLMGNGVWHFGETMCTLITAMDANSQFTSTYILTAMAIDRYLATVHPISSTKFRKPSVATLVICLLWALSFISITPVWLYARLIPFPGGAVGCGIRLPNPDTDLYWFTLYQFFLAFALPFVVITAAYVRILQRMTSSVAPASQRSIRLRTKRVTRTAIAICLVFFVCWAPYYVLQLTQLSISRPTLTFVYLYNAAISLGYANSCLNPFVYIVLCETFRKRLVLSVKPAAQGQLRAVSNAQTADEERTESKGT
Experimental for hMCHR1: Competitive binding studies were conducted on CHO-K1 cell membranes expressing the hMCHR1 (PerkinElmer, Inc., Waltham, USA). Briefly, cell membranes (10 µg/mL) were dissolved in 500 µL 50 mM Tris buffer (pH 7.4) (containing 10 mM MgCl2, 2 mM EDTA, 0.1% bacitracin and 0.2% BSA). […] All non-labelled compounds were initially dissolved in DMSO and diluted with deionized water to the final concentration, where the amount of DMSO never exceeded 5%. The membranes were incubated in vials at room temperature for 120 min. Subsequently, bound and free fractions of radioligand were separated by centrifugation at 40 000 × g for 20 min. The supernatants were removed into new vials and pellets were washed twice with 800 µL ice cold Tris buffer. The pellets were finally dissolved in 1300 µL Tris buffer and the radioactivity of both, the supernatant and the pellet, was measured in a Gamma Counter (2480 WIZARD[2], PerkinElmer, Waltham, MA, USA). The half-maximum inhibitory concentration (IC50) was determined using GraphPad Prism 6.0 (GraphPad Software, Inc., San Diego, CA, USA) and converted into the Ki using the Cheng Prusoff equation[38].

`COCC1=C(C(=O)OC)[C@H](c2ccc(F)c(F)c2)N(C(=O)NCCCN2CCC(c3cccc(NC(C)=O)c3)CC2)C(=O)N1` (racemic) [(±)-SNAP-7941] had an inhibition constant (Ki) at hMCHR1 (setting [5]) of 3.91 ± 0.74 nM. The IC50 on hMCHR1 (setting [6]) was 5.61 ± 1.06 nM. Also, the “binding cooperativity (from Hill slope factor)” value on hMCHR1 was “no binding cooperativity”. At hMCHR1 (setting [7]), this molecule gave a Hill slope factor of 2.66 ± 0.39.

Turning to `COCC1=C(C(=O)OC)[C@H](c2ccc(F)c(F)c2)N(C(=O)NCCCN2CCC(c3cccc(NC(C)=O)c3)CC2)C(=O)N1` [(+)-SNAP-7941, (+)-methyl(4 S)-3-{[(3-{4-[3-(acetylamino)phenyl]-1piperidinyl}propyl)amino]carbonyl}-4-(3,4-difluorophenyl)-6-(methoxymethyl)-2-oxo-1,2,3,4-tetra-hydro-5-pyrimidenecarboxylate hydrochloride], at hMCHR1, the 50% inhibitory concentration (IC50) amounted to 7.7 ± 0.35 nM, affinity was put at a Ki of 5.37 ± 0.25 nM and the “binding cooperativity (from Hill slope factor)” value is listed as “strong positive cooperativity”. The molecule further gave a Hill slope factor on hMCHR1 (setting [7]) of 8.89 ± 1.59.

In the case of `COCC1=C(C(=O)OCCF)[C@H](c2ccc(F)c(F)c2)N(C(=O)NCCCN2CCC(c3cccc(NC(C)=O)c3)CC2)C(=O)N1` [FE@SNAP, (+)-(2-Fluoroethyl)(4 S)-3-{[(3-{4-[3-(acetylamino)phenyl]-1-piperidinyl}propyl)amin]carbonyl}-4-(3,4-difluorophenyl)-6-(methoxymethyl)-2-oxo-1,2,3,4-tetra-hydro-5-pyrimidenecarboxylate], at hMCHR1 (setting [5]), the Ki came out at 9.98 ± 1.12 nM. This molecule showed an IC50 at hMCHR1 (setting [6]) of 14.3 ± 1.61 nM. Besides, the “binding cooperativity (from Hill slope factor)” value at hMCHR1 was “no binding cooperativity”. Moreover, the Hill slope factor at hMCHR1 (setting [7]) turned out to be 1.30 ± 0.33.

Turning to `COCC1=C(C(=O)O[11CH3])[C@H](c2ccc(F)c(F)c2)N(C(=O)NCCCN2CCC(c3cccc(NC(C)=O)c3)CC2)C(=O)N1` [[^11C]SNAP-7941], in series [1], the blood-brain-barrier penetration result is on record as “limited blood-brain-barrier penetration”. In addition, the results for the “SUVbw whole brain, baseline” value at MCHR1 [2] (setting [8]) and at MCHR1 [2] (setting [9]) were 0.41 ± 0.03 g/mL and 0.35 ± 0.03 g/mL, respectively. Besides, the “SUVbw ventricular system, baseline” value at MCHR1 [2] (setting [9]) was found to be 0.65 ± 0.04 g/mL; at MCHR1 [2] (setting [10]), 0.64 ± 0.08 g/mL. For the same molecule, the “SUVbw ventricular system, displacement” value at MCHR1 [2] (setting [10]) worked out at 0.71 ± 0.04 g/mL; at MCHR1 [2] (setting [11]) it was 0.32 ± 0.04 g/mL. The entries for the “SUVbw whole brain, displacement” value on MCHR1 [2] (setting [10]) and on MCHR1 [2] (setting [11]) were 0.34 ± 0.02 g/mL and 0.31 ± 0.03 g/mL, respectively. In addition, the “Ex-vivo brain uptake, normalized value” at MCHR1 [3] (setting [12]) is recorded as 0.015 ± 0.002 %ID/g; at MCHR1 [3] (vehicle group), 0.023 ± 0.002 %ID/g.

Turning to `COCC1=C(C(=O)OCC[18F])[C@H](c2ccc(F)c(F)c2)N(C(=O)NCCCN2CCC(c3cccc(NC(C)=O)c3)CC2)C(=O)N1` [[^18F]FE@SNAP], the “SUVbw whole brain, baseline” value at MCHR1 [2] (setting [8]) was 0.41 ± 0.01 g/mL; on MCHR1 [2] (setting [9]), 0.43 ± 0.02 g/mL. The “SUVbw ventricular system, baseline” value came to 0.72 ± 0.01 g/mL at MCHR1 [2] (setting [9]) and 0.69 ± 0.06 g/mL on MCHR1 [2] (setting [10]). Also, the entries for the “SUVbw ventricular system, displacement” value at MCHR1 [2] (setting [10]) and at MCHR1 [2] (setting [11]) were 0.73 ± 0.02 g/mL and 0.50 ± 0.04 g/mL, respectively. The “SUVbw whole brain, displacement” value at MCHR1 [2] (setting [10]) was 0.44 ± 0.02 g/mL; at MCHR1 [2] (setting [11]), 0.41 ± 0.02 g/mL. The metabolism result in series [4] is “fast metabolism”. In addition, the “Ex-vivo brain uptake, normalized value” on MCHR1 [3] (setting [12]) is listed as 0.018 ± 0.003 %ID/g; on MCHR1 [3] (vehicle group), 0.020 ± 0.001 %ID/g.
